Earlier results, collected in PMC3159814 (Bioorganic & medicinal chemistry letters, 2011).

Test system: GnRH receptor

- GnRH receptor binding affinity: 36.1 nM
Substance: 1,4,7,10-tetraazacyclododecane-1,4,7,10-tetraacetic acid (DOTA)-Ahx-(D-Lys^6-GnRH1) [DOTA-Ahx-(D-Lys^6-GnRH1)]
